The source of these data is PubChem BioAssay AID248 (DTP/NCI, 2004).

The test system of this assay is L1210 leukemia ip in BDF1 mice, survival T/C. As to the kind of experiment: NCI In Vivo Anticancer Drug Screen. Data for tumor model L1210 Leukemia (intraperitoneal) in B6D2F1 (BDF1) mice. Particulars: endpoint: mean survival time, higher = longer survival. In outline: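 In this screen, tumor-bearing mice given compound are compared to those given vehicle, and their survival values are reported as a treated-to-control quotient.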

Setting [1] is: dose: 100.0 mg/kg/injection, schedule: Q04DX003 (ip), vehicle: other.
The mark [2] stands for this setting: dose: 200.0 mg/kg/injection, schedule: Q04DX003 (ip), vehicle: other.
Where [3] appears, read: dose: 400.0 mg/kg/injection, schedule: Q04DX003 (ip), vehicle: other.
The mark [4] stands for this setting: dose: 100.0 mg/kg/injection, schedule: Q01DX001 (ip), vehicle: saline with Tween-80.
[5] abbreviates: dose: 100.0 mg/kg/injection, schedule: Q01DX009 (ip), vehicle: saline with Tween-80.
The mark [6] stands for this setting: dose: 200.0 mg/kg/injection, schedule: Q01DX009 (ip), vehicle: saline with Tween-80.
Setting [7] is: dose: 400.0 mg/kg/injection, schedule: Q01DX009 (ip), vehicle: saline with Tween-80.
Where [8] appears, read: dose: 200.0 mg/kg/injection, schedule: Q01DX001 (ip), vehicle: saline with Tween-80.
The mark [9] stands for this setting: dose: 400.0 mg/kg/injection, schedule: Q01DX001 (ip), vehicle: saline with Tween-80.
[10] abbreviates: dose: 400.0 mg/kg/injection, schedule: Q04DX002 (ip), vehicle: saline with Tween-80.
Where [11] appears, read: dose: 100.0 mg/kg/injection, schedule: Q04DX002 (ip), vehicle: Klucel (hydroxypropylcellulose) (HPC).
The mark [12] stands for this setting: dose: 100.0 mg/kg/injection, schedule: Q04DX003 (ip), vehicle: Klucel (hydroxypropylcellulose) (HPC).
Setting [13] is: dose: 200.0 mg/kg/injection, schedule: Q04DX002 (ip), vehicle: Klucel (hydroxypropylcellulose) (HPC).
Setting [14] is: dose: 200.0 mg/kg/injection, schedule: Q04DX003 (ip), vehicle: Klucel (hydroxypropylcellulose) (HPC).
The mark [15] stands for this setting: dose: 400.0 mg/kg/injection, schedule: Q04DX002 (ip), vehicle: Klucel (hydroxypropylcellulose) (HPC).
The mark [16] stands for this setting: dose: 100.0 mg/kg/injection, schedule: Q01DX001 (ip), vehicle: saline.
Where [17] appears, read: dose: 200.0 mg/kg/injection, schedule: Q01DX001 (ip), vehicle: saline.
[18] abbreviates: dose: 400.0 mg/kg/injection, schedule: Q01DX001 (ip), vehicle: saline.
Setting [19] is: dose: 400.0 mg/kg/injection, schedule: Q04DX003 (ip), vehicle: Klucel (hydroxypropylcellulose) (HPC).
The mark [20] stands for this setting: dose: 100.0 mg/kg/injection, schedule: Q01DX009 (ip), vehicle: Klucel (hydroxypropylcellulose) (HPC).
[21] abbreviates: dose: 200.0 mg/kg/injection, schedule: Q01DX009 (ip), vehicle: Klucel (hydroxypropylcellulose) (HPC).

Where “and” joins values, the source holds several entries; their conditions need not be identical. Equal values may be shown once. Inconclusive results and toxic doses are left out.

Turning to `CC(=O)C(C)(c1ccccc1)N(Cc1ccccc1)C(=O)c1ccccc1` (stereo not given), the T/C is 93 % of control under setting [1], 108 % of control under setting [2] and 92 % of control under setting [3].
For `Cc1c(Cl)cccc1Nc1n[nH]c(=S)s1`, the T/C is, setting by setting: (dose: 75.0 mg/kg/injection, schedule: Q01DX001 (ip), vehicle: other) 98 % of control; (dose: 150.0 mg/kg/injection, schedule: Q01DX001 (ip), vehicle: other) 98 % of control; (dose: 300.0 mg/kg/injection, schedule: Q01DX001 (ip), vehicle: other) 93 % of control.
As for `O=C1OC(=O)C2C1C1C3C(=O)C4C5C(=O)C3C2C5C41` (stereo not given), the T/C by setting is: (dose: 75.0 mg/kg/injection, schedule: Q04DX002 (ip), vehicle: Klucel (hydroxypropylcellulose) (HPC)) 97 % of control; (dose: 150.0 mg/kg/injection, schedule: Q04DX002 (ip), vehicle: Klucel (hydroxypropylcellulose) (HPC)) 97 % of control; (dose: 300.0 mg/kg/injection, schedule: Q04DX002 (ip), vehicle: Klucel (hydroxypropylcellulose) (HPC)) 97 % of control.
As to `C[n+]1ccn2ccccc21`, the T/C was 104 % of control (dose: 50.0 mg/kg/injection, schedule: Q01DX001 (ip), vehicle: saline with Tween-80) and 109 % of control under setting [4].
Consider `CCCC(C)(C)C(=O)Nc1cccc(OC(=O)NC(C)(C)C)c1`, for which the T/C runs as follows: under setting [5], 88 % of control; under setting [6], 86 % of control; under setting [7], 89 % of control.
For `COC(=O)c1ccccc1NC(=S)NC(=O)C(C)Oc1ccccc1` (stereo not given), the T/C by setting is: under setting [4], 111 % of control; under setting [5], 108 % of control and 109 % of control; (dose: 100.0 mg/kg/injection, schedule: Q04DX002 (ip), vehicle: saline with Tween-80) 96 % of control and 108 % of control; (dose: 100.0 mg/kg/injection, schedule: Q04DX003 (ip), vehicle: saline with Tween-80) 107 % of control; under setting [8], 95 % of control; under setting [6], 95 % of control and 100 % of control. The T/C reads like this: (dose: 200.0 mg/kg/injection, schedule: Q04DX002 (ip), vehicle: saline with Tween-80) 98 % of control and 107 % of control; (dose: 200.0 mg/kg/injection, schedule: Q04DX003 (ip), vehicle: saline with Tween-80) 98 % of control; under setting [9], 98 % of control; under setting [7], 92 % of control; under setting [10], 101 % of control and 104 % of control; (dose: 400.0 mg/kg/injection, schedule: Q04DX003 (ip), vehicle: saline with Tween-80) 106 % of control.
For the compound `CC(=O)C1CCC2C3CC=C4CC(O)CCC4(C)C3CCC12C` (stereo not given), the T/C is, setting by setting: under setting [11], 91 % of control; under setting [12], 89 % of control; under setting [13], 100 % of control; under setting [14], 92 % of control; under setting [15], 91 % of control.
Regarding `CCOC(=S)c1cccc(S(=O)(=O)Nc2ccc(OCC)cc2)c1`, the T/C is 105 % of control under setting [4], 105 % of control under setting [8] and 108 % of control under setting [9].
For the compound `Clc1cccc(N=C(Oc2cccc(Cl)c2)c2ccccc2)c1`, the T/C (dose: 25.6 mg/kg/injection, schedule: Q04DX002 (ip), vehicle: saline with Tween-80) is 176 % of control; the T/C (dose: 64.0 mg/kg/injection, schedule: Q04DX002 (ip), vehicle: saline with Tween-80) was 101 % of control; the T/C (dose: 160.0 mg/kg/injection, schedule: Q04DX002 (ip), vehicle: saline with Tween-80) is 97 % of control; the T/C under setting [10] is 93 % of control.
Turning to `N#C/C(N)=C(\C#N)N=C1CCCCC1=O`, the T/C runs as follows: under setting [11], 94 % of control; under setting [13], 91 % of control; under setting [15], 94 % of control.
As to `O=C1CCCCC1C(O)(C(=O)c1ccccc1)c1ccccc1` (stereo not given) (tested in a mixture with another compound), the T/C (dose: 50.0 mg/kg/injection, schedule: Q01DX009 (ip), vehicle: saline with Tween-80) was 97 % of control; the T/C under setting [5] is 87 % of control; the T/C under setting [6] is 91 % of control.
Turning to `CN(C)c1nc2c(=O)[nH]cnc2n1C1OC(CO)C(O)C1O` (stereo not given), the T/C reads like this: (dose: 50.0 mg/kg/injection, schedule: Q01DX001 (ip), vehicle: saline) 95 % of control; under setting [16], 93 % of control; under setting [17], 112 % of control; under setting [18], 95 % of control.
As for `CCOC(CS(=O)(=O)CC(N)=O)OCC`, the T/C under setting [5] is 97 % of control, the T/C under setting [6] is 95 % of control and the T/C under setting [7] is 92 % of control.
As to `CN(C)S(=O)(=O)c1ccc(NC(=O)OC(c2ccccc2)(c2ccccc2)c2ccccc2)cc1`, the T/C by setting is: under setting [16], 96 % of control; under setting [17], 92 % of control; under setting [18], 96 % of control.
`CCOC(=O)C1CC1Cc1ccccc1` (stereo not given): the T/C under setting [5] is 101 % of control; the T/C (dose: 100.0 mg/kg/injection, schedule: Q04DX003 (ip), vehicle: saline) was 100 % of control; the T/C under setting [6] was 102 % of control; the T/C (dose: 200.0 mg/kg/injection, schedule: Q04DX003 (ip), vehicle: saline) is 105 % of control; the T/C under setting [7] is 104 % of control; the T/C (dose: 400.0 mg/kg/injection, schedule: Q04DX003 (ip), vehicle: saline) is 94 % of control.
As for `Cc1ccc([N+](=O)[O-])cc1NC(=O)N(CC(O)c1ccccc1)C1CCCCC1` (stereo not given), the T/C under setting [11] is 90 % of control, the T/C under setting [13] was 97 % of control and the T/C under setting [15] is 95 % of control.
`Clc1ccccc1C(c1ccc(-c2ccccc2)cc1)(c1ccc(-c2ccccc2)cc1)n1ccnc1`: the T/C is 95 % of control under setting [12], 104 % of control under setting [14] and 90 % of control under setting [19].
Consider `CC1=Nc2cc(C)c(C)cc2N=C(C)C1`, for which the T/C was 96 % of control under setting [20], 93 % of control under setting [12], 98 % of control under setting [21] and 97 % of control under setting [14].
For `CCC(Br)C(Br)CC(Br)C(Br)CC(Br)C(Br)CCCCCCCC(=O)O` (stereo not given), the T/C is, setting by setting: under setting [20], 96 % of control; under setting [12], 98 % of control; under setting [21], 88 % of control; under setting [14], 89 % of control; (dose: 400.0 mg/kg/injection, schedule: Q01DX009 (ip), vehicle: Klucel (hydroxypropylcellulose) (HPC)) 88 % of control; under setting [19], 92 % of control.
Regarding `CCC(C(=O)O)=C1CCCCC1`, the T/C was 95 % of control under setting [16], 95 % of control under setting [17] and 103 % of control under setting [18].
For the compound `COc1cc2c3c(c1)-c1nc4ccccc4cc1CN3CCC2`, the T/C by setting is: (dose: 100.0 mg/kg/injection, schedule: Q01DX009 (ip), vehicle: other) 102 % of control; under setting [1], 97 % of control; (dose: 200.0 mg/kg/injection, schedule: Q01DX009 (ip), vehicle: other) 102 % of control; under setting [2], 100 % of control; (dose: 400.0 mg/kg/injection, schedule: Q01DX009 (ip), vehicle: other) 114 % of control; under setting [3], 97 % of control.
Consider `C#CCOCCC(C(=O)O)C(=O)O`, for which the T/C was 90 % of control (dose: 100.0 mg/kg/injection, schedule: Q01DX009 (ip), vehicle: acetone); 101 % of control (dose: 100.0 mg/kg/injection, schedule: Q04DX003 (ip), vehicle: acetone); 97 % of control (dose: 200.0 mg/kg/injection, schedule: Q01DX009 (ip), vehicle: acetone); 101 % of control (dose: 200.0 mg/kg/injection, schedule: Q04DX003 (ip), vehicle: acetone); 92 % of control (dose: 400.0 mg/kg/injection, schedule: Q04DX003 (ip), vehicle: acetone).
